{"source": "ChEMBL document CHEMBL1649515", "about": "“Heteroresistance to fluconazole in Cryptococcus neoformans is intrinsic and associated with virulence” (2009)", "key": {"Cryptococcus neoformans [1]": {"system": "Cryptococcus neoformans", "experiment": "Antimicrobial activity against Cryptococcus neoformans serotype D", "assay_type": "functional"}, "Cryptococcus neoformans [2]": {"system": "Cryptococcus neoformans", "experiment": "Antimicrobial activity against Cryptococcus neoformans serotype A", "assay_type": "functional"}, "Aspergillus fumigatus": {"system": "Aspergillus fumigatus", "experiment": "Antimicrobial activity against Aspergillus fumigatus at 8 to 32 ug/ml", "assay_type": "functional, organism-based"}, "Burkholderia sp.": {"system": "Burkholderia sp.", "experiment": "Antimicrobial activity against Burkholderia sp. at 8 to 32 ug/ml", "assay_type": "functional"}, "Streptomyces platensis": {"system": "Streptomyces platensis", "experiment": "Antimicrobial activity against Streptomyces platensis at 8 to 32 ug/ml", "assay_type": "functional"}}, "note": "Active and inactive are the calls of the source. The calls are words filed in the database; no cut-off is given here.", "data": [{"compound": "OC(Cn1cncn1)(Cn1cncn1)c1ccc(F)cc1F", "note": "[FLUCONAZOLE]", "values": [{"measurement": "MIC", "setting": "Cryptococcus neoformans [1]", "value": "≥ 64", "unit": "µg/mL"}, {"measurement": "MIC", "setting": "Cryptococcus neoformans [2]", "value": "≥ 64", "unit": "µg/mL"}, {"measurement": "Activity", "setting": "Aspergillus fumigatus", "value": "inactive"}, {"measurement": "Activity", "setting": "Burkholderia sp.", "value": "inactive"}, {"measurement": "Activity", "setting": "Streptomyces platensis", "value": "inactive"}]}]}
